This note sets out measurements from patent publication US20260158009A1 (GENZYME CORPORATION, priority 2023, published 2026).

Assay [1] deals with U937 cells. Briefly: Cellular assay in U937 cells: activity of RIPK1 inhibitors on TNFα/zVAD.fmk-induced cell death (necroptosis), CellTiter 96 AQueous (MTS) readout. The format is cell-based. Particulars: Homo sapiens, U-937. The gist of the method: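 Necroptosis was measured by viable-cell MTS reduction (4 h, absorbance 490 nm) after overnight (18–24 h) 37° C culture. Cell suspensions of U937 cells carried TNFα (100 ng/ml) plus zVAD.fmk (50 μM) before compound was added. A 10-point curve (10 μM–0.26 nM or 1 μM–0.07 nM) was run in duplicate, normalised to the control lacking TNFα/zVAD.fmk.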

Assay [2] deals with T1, hRIPK1 (aa 1-375) fusion protein (Homo sapiens, UniProt Q13546).
T1 construct: hRIPK1 (aa 1-375) fusion protein
T1 sequence (Q13546 1-375): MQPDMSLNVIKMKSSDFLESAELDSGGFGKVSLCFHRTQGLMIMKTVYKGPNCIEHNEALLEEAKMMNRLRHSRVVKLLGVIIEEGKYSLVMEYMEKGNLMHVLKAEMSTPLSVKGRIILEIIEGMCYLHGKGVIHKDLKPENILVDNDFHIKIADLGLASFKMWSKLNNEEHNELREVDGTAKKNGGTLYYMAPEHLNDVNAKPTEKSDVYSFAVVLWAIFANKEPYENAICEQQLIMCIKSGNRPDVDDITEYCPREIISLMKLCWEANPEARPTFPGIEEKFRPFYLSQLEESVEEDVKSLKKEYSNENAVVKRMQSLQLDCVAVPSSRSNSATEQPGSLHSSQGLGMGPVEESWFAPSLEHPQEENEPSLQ
The experiment in a line: ADP-Glo kinase assay: catalytic activity of RIPK1 (autophosphorylation, conversion of ATP to ADP). The format is biochemical. The procedure, abridged:
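hRIPK1 (aa 1-375) fusion protein (3.6 μg/ml final) was preincubated 30 min at rt with compound (33300-1.69 nM, 1% DMSO), then 50 μM ATP was added for 240 min at rt. ADP from autophosphorylation was measured by ADP-Glo luminescence and curves fitted by nonlinear regression.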

As for `Cc1nn(C[C@H]2CC[C@H](C(=O)N3OCC[C@H]3c3cc(F)cc(C#N)c3)CC2)c2cc(C#N)cc(F)c12` [compound 100, trans-1-((4-((S)-3-(3-cyano-5-fluorophenyl)isoxazolidine-2-carbonyl)cyclohexyl)methyl)-4-fluoro-3-methyl-1H-indazole-6-carbonitrile], the IC50 was found to be 4 nM in assay [1] and 17 nM in assay [2].
In the case of `Cc1cn2nc(C[C@H]3CC[C@H](C(=O)N4OCC[C@H]4c4cc(F)cc(F)c4)CC3)c(C)cc2n1` [compound 293, trans-[(3S)-3-(3,5-difluorophenyl)isoxazolidin-2-yl]-[4-[(2,7-dimethylimidazo[1,2-b]pyridazin-6-yl)methyl]cyclohexyl]methanone], the values for the IC50 in assay [1] and in assay [2] were 3 nM and 14 nM, respectively.
On to `Cc1cncc([C@@H]2CCON2C(=O)[C@H]2CC[C@H](Cc3cc(C)c4ncnn4c3)CC2)c1` [compound 334, trans-[(3S)-3-(5-methylpyridin-3-yl)-1,2-oxazolidin-2-yl]-[4-[(8-methyl-[1,2,4]triazolo[1,5-a]pyridin-6-yl)methyl]cyclohexyl]methanone], for which the IC50 in assay [1] came to 35 nM; in assay [2] it was 20 nM.
In the case of `NC(=O)c1cc2c(cc1F)ncn2C[C@H]1CC[C@H](C(=O)N2OCC[C@H]2c2cc(F)cc(F)c2)CC1` [compound 71, trans-1-((4-((S)-3-(3,5-difluorophenyl)isoxazolidine-2-carbonyl)cyclohexyl)methyl)-5-fluoro-1H-benzo[d]imidazole-6-carboxamide], the IC50 in assay [1] turned out to be 93 nM; in assay [2] it was 37 nM.
For the molecule `N#Cc1cncc([C@@H]2CCON2C(=O)[C@H]2CC[C@H](Cn3ccc4ncc(F)cc43)CC2)c1` [compound 123, trans-5-((S)-2-(4-((6-fluoro-1H-pyrrolo[3,2-b]pyridin-1-yl)methyl)cyclohexane-1-carbonyl)isoxazolidin-3-yl)nicotinonitrile], the IC50 was 12 nM in assay [1] and 46 nM in assay [2].
Take `Cc1cc([C@@H]2CCON2C(=O)[C@H]2CC[C@H](Cn3ncc4ccc(C#N)cc43)CC2)co1` [compound 43, trans-1-((4-((S)-3-(5-methylfuran-3-yl)isoxazolidine-2-carbonyl)cyclohexyl)methyl)-1H-indazole-6-carbonitrile]: the results for the IC50 in assay [1] and in assay [2] were 1 nM and 18 nM, respectively.
Consider `N#Cc1cc(F)cc([C@@H]2CCON2C(=O)[C@H]2CC[C@H](Cn3ccc4ncccc43)CC2)c1` [compound 14, trans-3-((S)-2-(4-((1H-pyrrolo[3,2-b]pyridin-1-yl)methyl)cyclohexane-1-carbonyl)isoxazolidin-3-yl)-5-fluorobenzonitrile], for which the IC50 in assay [1] came to 3 nM; in assay [2] it was 50 nM.
On to `Cc1nc2c(Cl)cc(C[C@H]3CC[C@H](C(=O)N4OCC[C@H]4c4cncc(F)c4)CC3)cn2n1` [compound 382, [4-[(8-chloro-2-methyl-[1,2,4]triazolo[1,5-a]pyridin-6-yl)methyl]cyclohexyl]-[(3S)-3-(5-fluoropyridin-3-yl)-1,2-oxazolidin-2-yl]methanone], for which the results for the IC50 in assay [1] and in assay [2] were 8 nM and 26 nM, respectively.
Consider `Cc1nc(C[C@H]2CC[C@H](C(=O)N3OCC[C@H]3c3cc(F)cc(C#N)c3)CC2)cs1` [compound 239, trans-3-fluoro-5-[(3S)-2-[4-[(2-methylthiazol-4-yl)methyl]cyclohexanecarbonyl]isoxazolidin-3-yl]benzonitrile], for which the results for the IC50 in assay [1] and in assay [2] were 5 nM and 27 nM, respectively.
On to `Cc1ncc(F)cc1C[C@H]1CC[C@H](C(=O)N2OCC[C@H]2c2cc(F)cc(C#N)c2)CC1` [compound 181, trans-3-fluoro-5-[(3S)-2-[4-[(5-fluoro-2-methyl-3-pyridyl)methyl]cyclohexanecarbonyl]isoxazolidin-3-yl]benzonitrile], for which the IC50 was determined as 2 nM in assay [1] and 26 nM in assay [2].
Take `Cc1ncc(F)cc1C[C@H]1CC[C@H](C(=O)N2OCC[C@H]2c2cncc(C#N)c2)CC1` [compound 197, trans-5-[(3S)-2-[4-[(5-fluoro-2-methyl-3-pyridyl)methyl]cyclohexanecarbonyl]isoxazolidin-3-yl]pyridine-3-carbonitrile]: the IC50 turned out to be 4 nM in assay [1] and 24 nM in assay [2].
`Cc1nn(C[C@H]2CC[C@H](C(=O)N3OCC[C@H]3c3cc(F)cc(C#N)c3)CC2)c2cc(F)c(C#N)cc12` [compound 69, trans-1-((4-((S)-3-(3-cyano-5-fluorophenyl)isoxazolidine-2-carbonyl)cyclohexyl)methyl)-6-fluoro-3-methyl-1H-indazole-5-carbonitrile]: the results for the IC50 in assay [1] and in assay [2] were 5 nM and 22 nM, respectively.
Turning to `N#Cc1cc(F)cc([C@@H]2CCON2C(=O)[C@H]2CC[C@H](Cn3ccc4ncc(OCCO)cc43)CC2)c1` [compound 153, trans-3-fluoro-5-[(3S)-2-[4-[[6-(2-hydroxyethoxy)pyrrolo[3,2-b]pyridin-1-yl]methyl]cyclohexanecarbonyl]isoxazolidin-3-yl]benzonitrile], the IC50 was found to be 3 nM in assay [1] and 6 nM in assay [2].
`O=C([C@H]1CC[C@H](Cc2ccc(C3(O)COC3)cc2)CC1)N1OCC[C@H]1c1ccc(F)cc1` [compound 170, trans-[(3S)-3-(4-fluorophenyl)isoxazolidin-2-yl]-[4-[[4-(3-hydroxyoxetan-3-yl)phenyl]methyl]cyclohexyl]methanone]: the IC50 worked out at 15 nM in assay [1] and 21 nM in assay [2].
For the molecule `Cc1ncn(C[C@H]2CC[C@H](C(=O)N3OCC[C@H]3c3cc(F)cc(F)c3)CC2)c1C#N` [compound 89, trans-1-((4-((S)-3-(3,5-difluorophenyl)isoxazolidine-2-carbonyl)cyclohexyl)methyl)-4-methyl-1H-imidazole-5-carbonitrile], the IC50 turned out to be 38 nM in assay [1] and 34 nM in assay [2].
As for `Cc1ccc([C@@H]2CCON2C(=O)[C@H]2CC[C@H](Cc3ccc4nnc(C)n4c3C)CC2)cn1` [compound 376, [4-(3,5-Dimethyl-[1,2,4]triazolo[4,3-a]pyridin-6-ylmethyl)-cyclohexyl]-[(S)-3-(6-methyl-pyridin-3-yl)-isoxazolidin-2-yl]-methanone], the IC50 in assay [1] was found to be 90 nM; in assay [2] it was 75 nM.
Take `Cc1nc2ccc(C[C@H]3CC[C@H](C(=O)N4OCC[C@H]4c4cc(F)cc(C#N)c4)CC3)cn2n1` [compound 221, trans-3-fluoro-5-[(3S)-2-[4-[(2-methyl-[1,2,4]triazolo[1,5-a]pyridin-6-yl)methyl]cyclohexanecarbonyl]isoxazolidin-3-yl]benzonitrile]: the IC50 was found to be 19 nM in assay [1] and 22 nM in assay [2].
On the same counts, the results for `N#Cc1cc(F)cc([C@@H]2CCON2C(=O)[C@H]2CC[C@H](Cn3ncc4cc(C#N)c(F)cc43)CC2)c1` [compound 66, trans-1-((4-((S)-3-(3-cyano-5-fluorophenyl)isoxazolidine-2-carbonyl)cyclohexyl)methyl)-6-fluoro-1H-indazole-5-carbonitrile] are 2 nM and 18 nM.
On the same counts, the results for `Cc1nc([C@@H]2CCON2C(=O)[C@H]2CC[C@H](Cn3ncc4ccc(C#N)cc43)CC2)cs1` [compound 204, trans-1-[[4-[(3S)-3-(2-methylthiazol-4-yl)isoxazolidine-2-carbonyl]cyclohexyl]methyl]indazole-6-carbonitrile] are 2 nM and 21 nM.
Turning to `N#Cc1cnc2cn(C[C@H]3CC[C@H](C(=O)N4OCC[C@H]4c4cc(F)cc(F)c4)CC3)nc2c1` [compound 25, trans-2-((4-((S)-3-(3,5-difluorophenyl)isoxazolidine-2-carbonyl)cyclohexyl)methyl)-2H-pyrazolo[4,3-b]pyridine-6-carbonitrile], the IC50 in assay [1] came out at 154 nM; in assay [2], 68 nM.
As for `N#Cc1cc(F)cc([C@@H]2CCON2C(=O)[C@H]2CC[C@H](Cn3ccc4ncc(OC5COC5)cc43)CC2)c1` [compound 146, trans-3-fluoro-5-[(3S)-2-[4-[[6-(oxetan-3-yloxy)pyrrolo[3,2-b]pyridin-1-yl]methyl]cyclohexanecarbonyl]isoxazolidin-3-yl]benzonitrile], the IC50 in assay [1] stood at 26 nM; in assay [2] it was 28 nM.
On the same counts, the results for `NC(=O)c1ccc2cnn(C[C@H]3CC[C@H](C(=O)N4OCC[C@H]4c4ccccn4)CC3)c2c1` [Compound 230, trans-1-[[4-[(3S)-3-(2-pyridyl)isoxazolidine-2-carbonyl]cyclohexyl]methyl]indazole-6-carboxamide] are 376 nM and 131 nM.
Consider `N#Cc1cc(F)cc([C@@H]2CCON2C(=O)[C@H]2CC[C@H](Cn3ccc4ncc(C#N)cc43)CC2)c1` [compound 2, trans-1-((4-((S)-3-(3-cyano-5-fluorophenyl)isoxazolidine-2-carbonyl)cyclohexyl)methyl)-1H-pyrrolo[3,2-b]pyridine-6-carbonitrile], for which the IC50 in assay [1] was determined as 9 nM; in assay [2], 33 nM.
